Experimental data taken from patent US10758609B2, “Cross-reactive T-cell epitopes of HIV, SIV, and FIV for vaccines in humans and cats” (priority 2015, dated 2020).

Columns and labels:
[1] = system: CD3^+CD8^+ T cells from HIV^+ subjects; assay: CFSE-based CD3+CD8+ T-cell proliferation, HIV+ human subjects
Description: (§1) The overlapping peptide pools of FIV and HIV-1 structural and enzyme proteins were used to stimulate the […] (PBMC) and the T cells from HIV^+ subjects as previously described for epitope mapping of HIV-1 and FIV p24 and reverse transcriptase (RT) (Sanou et al., 2013; Roff et al., 2015). The individual peptides in those peptide pools with positive responses to either interferon-γ (IFNγ) production and/or T-cell proliferation were determined with IFNγ ELISpot analysis and CFSE-based CD3^+CD4^+ and CD3^+CD8^+ T-cell proliferation analyses followed by the FACS-based intracellular staining (ICS) for cytolysin (perforin) and cytotoxin (granzyme A [GrzA] and GrzB) (Sanou et al., 2013; Roff et al., 2015). Besides viral p24 and RT proteins, the identical approach was used to identify anti-HIV/FIV T-cell epitopes on viral matrix (MA), nucleocapsid (NC), protease (PR), RNAase, integrase (IN), surface envelope (SU Env), and transmembrane envelope (TM Env) (FIG. 12).
(§2) Since our goal is to develop HIV vaccine for human use, the HIV peptides (Table 10) counterpart of the cross-reactive FIV peptides shown in Table 9 were tested with PBMC and T cells from HIV^+ subjects. The immune functions analyzed were human IFNγ production by ELISpot, cytolysin/cytotoxin production by ICS, and CFSE-based proliferation of CD3^+CD4^+ and CD3^+CD8^+ T cells from HIV^+ subjects (Table 10, the first set of results). In addition, the Los Alamos National Laboratories (LANL) database was used to identify the HLA allele(s) of the HIV epitope sequence with CTL activity that can exist within the sequence of the conserved counterpart HIV peptide (Table 9, LANL CTL). The bold HLA class-I supertypes and the bold 2-digit alleles are those on the “Optimal CD8^+ CTL Epitopes” list and those without bold are alleles for potential CTL epitope. […] The HLA class II such as HLA-DRB1 has yet to be fully classified into supertypes, and therefore the 4-digit resolution nomenclatures for the HLA-DRB1 alleles are shown.
(§3) The threshold for positive IFNγ and IL2 ELISpot responses is ≥50 spot-forming units (SFU) per 10^6 PBMC. The threshold for CFSE-based CD4^+ and CD8^+ T-cell proliferation is ≥2% CD4^+ T-cell CFSE^low or CD8^+ T-cell CFSE^low. The threshold of FACS-based intracellular cytokine staining (ICS) is ≥0.2%. […] The nine FIV peptides in black were used in the current MAP vaccine trial, whereas the 13 peptides in blue were not used. […] The MAPs and their corresponding peptide(s) were also tested for their ability to enhance or suppress in vitro FIV infection of feline PBMC (E/S of peptides and E/S of MAP).
(§4) The counterpart HIV-1 peptides of the FIV peptides were also tested for immunogenicity using PBMC and T cells from HIV^+ human subjects. […] The HRT7-1 and HRT7-2 were also tested with cells from HIV^+ subjects on ART. The threshold for positive IFNγ ELISpot response is ≥75 spot-forming units (SFU) per 10^6 PBMC. The threshold for CFSE-based CD4^+ (CD4^+ T) and CD8^+ (CD8^+ T) T-cell proliferation is ≥2% CD4^+ T-cell CFSE^low or CD8^+ T-cell CFSE^low. The threshold of intracellular cytokine staining (ICS) of FACS-based cytolysin (perforin) and cytotoxins (granzymes A and B) in CD4^+ T cells (CyCD4) and CD8^+ T cells (CyCD8) is ≥0.2%. […] The nine HIV-1 peptides in black are the counterpart FIV peptides used in the current MAP vaccine trial, whereas the 13 peptides in blue were not.

[2] = system: PBMC from HIV^+ subjects; assay: IFNγ ELISpot of PBMC from HIV+ human subjects; type: cell-based
Description: as §1, §2
In addition, these peptides were also analyzed for IFNγ production, CD4^+ and CD8^+ T-cell proliferation, and cytolysin (perforin) and cytotoxin (granzyme A (GrzA) and GrzB)) mRNA production of PBMC or T cells from 8-30 HIV^+ human subjects. The frequency of responders is based on the individual responses of the vaccinated cats or HIV^+ human subjects after subtraction of the average of the responses of PBMC or T cells from 6-8 non-vaccinated cats or 8-20 HIV-negative human subjects.
as §3
The counterpart HIV-1 peptides of the FIV peptides were also tested for immunogenicity using PBMC and T cells from HIV^+ human subjects. […] The HRT7-1 and HRT7-2 were also tested with cells from HIV^+ subjects on ART. The threshold for positive IFNγ ELISpot response is ≥75 spot-forming units (SFU) per 10^6 PBMC. The threshold for CFSE-based CD4^+ (CD4^+ T) and CD8^+ (CD8^+ T) T-cell proliferation is ≥2% CD4^+ T-cell CFSE^low or CD8^+ T-cell CFSE^low. The threshold of intracellular cytokine staining (ICS) of FACS-based cytolysin (perforin) and cytotoxins (granzymes A and B) in CD4^+ T cells (CyCD4) and CD8^+ T cells (CyCD8) is ≥0.2%.

[3] = system: CD8^+ T cells from HIV^+ subjects; assay: FACS-based intracellular staining (ICS) for cytolysin (perforin) and cytotoxins (GrzA, GrzB) in CD8+ T cells; settings: HIV+ human subjects
Description: as §1, §2, §3, §4

[4] = system: CD4^+ T cells from HIV^+ subjects; settings: HIV+ human subjects
Description: as §1, §2, §4

[5] = system: CD3^+CD4^+ T cells from HIV^+ subjects; assay: CFSE-based CD3+CD4+ T-cell proliferation, HIV+ human subjects
Description: as §1, §2, §3, §4

[6] = HIV-1 epitope peptide, threshold ≥2% CFSElow
[7] = HIV-1 epitope peptide, threshold ≥0.2%

Sequence: KKDSTKWRKLVDFRE [HRT3-3]
- CD8+ T proliferation, frequency of responders [1, 6]: +++ (40.1%-54% (+++))
- CD8^+ T (T-cell proliferation), frequency of responders ([1]; HIV-1 peptides): +++ (40.1%-54% (+++))
- IFNγ, frequency of responders ([2]; HIV-1 epitope peptide, threshold ≥75 SFU per 10^6 PBMC): + (12.5%-25% (+))
- IFNγ, frequency of responders ([2]; HIV-1 peptides): + (12.5%-25% (+))
- CyCD8: CD8+ T-cell cytolysin/cytotoxins (perforin, GrzA & B), frequency of responders [3, 7]: ++++ (>54% (++++))
- CyCD7, frequency of responders ([3]; HIV-1 peptides): ++++ (>54% (++++))
- CyCD4: CD4+ T-cell cytolysin/cytotoxins (perforin, GrzA & B), frequency of responders [4, 7]: ++++ (>54% (++++))
- CyCD4 (cytolysin and cytotoxin production of CD4+ T cells), frequency of responders ([4]; HIV-1 peptides): ++++ (>54% (++++))
- CD4+ T proliferation, frequency of responders [5, 6]: ++ (25.1%-40% (++))
- CDC4^+ T (T-cell proliferation), frequency of responders ([5]; HIV-1 peptides): ++ (25.1%-40% (++))
